Measurements published in patent publication US20250230193A1, “CYCLIC COMPOUND HAVING SELECTIVE KRAS INHIBITORY EFFECT ON HRAS AND NRAS” (CHUGAI SEIYAKU KABUSHIKI KAISHA, priority 2022, published 2025).

Key:
[1] = molecular target: GDP-bound NRAS wild-type protein (Homo sapiens, UniProt P01111); assay: Binding to NRAS by surface plasmon resonance (SPR), Single Cycle Kinetics; conditions: KD ratio, GDP-bound NRAS wild-type vs GDP-bound KRAS wild-type, SPR
[2] = molecular target: GDP-bound HRAS wild-type protein (Homo sapiens, UniProt P01112); assay: Binding to HRAS by surface plasmon resonance (SPR), Single Cycle Kinetics; conditions: KD ratio, GDP-bound HRAS wild-type vs GDP-bound KRAS wild-type, SPR
GDP-bound HRAS wild-type protein, sequence (P01112 whole entry): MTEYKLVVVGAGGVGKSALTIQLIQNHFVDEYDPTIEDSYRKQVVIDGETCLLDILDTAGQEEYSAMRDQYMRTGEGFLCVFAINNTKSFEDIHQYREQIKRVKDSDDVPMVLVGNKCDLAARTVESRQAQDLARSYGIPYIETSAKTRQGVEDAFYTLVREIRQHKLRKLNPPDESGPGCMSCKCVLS

GDP-bound NRAS wild-type protein, sequence (P01111 whole entry): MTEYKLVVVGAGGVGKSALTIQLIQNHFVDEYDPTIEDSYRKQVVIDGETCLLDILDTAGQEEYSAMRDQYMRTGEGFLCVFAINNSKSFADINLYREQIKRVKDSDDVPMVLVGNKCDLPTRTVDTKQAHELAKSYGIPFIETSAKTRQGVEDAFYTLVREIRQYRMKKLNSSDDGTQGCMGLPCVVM

SMILES	NRAS/KRAS (ratio of KD value for NRAS to KD value for KRAS) [1]	HRAS/KRAS (ratio of KD value for HRAS to KD value for KRAS) [2]
CCO[C@@H]1C[C@H]2C(=O)NC3(CC(F)(F)C3)C(=O)N(C)[C@@H](C3CCCC3)C(=O)N(C)[C@H](CC)CC(=O)N(C)[C@@H](CC)C(=O)N[C@@H]([C@@H](C)CC)C(=O)N(C)CC(=O)N(C)[C@H]3C/C=C\CCN(C3=O)[C@@H](Cc3ccc(C(F)(F)F)cc3)C(=O)N(C)CC(=O)N[C@@H](CCc3cc(F)c(C(F)(F)F)c(F)c3)C(=O)N2C1 [PP1627]	A (a compound having 10 or more and less than 20 is denoted as A)	A (a compound having 10 or more and less than 20 is denoted as A)
CCO[C@@H]1C[C@H]2C(=O)NC3(CC(C)(C)C3)C(=O)N(C)[C@@H](C(CC)CC)C(=O)N(C)[C@H](CC)CC(=O)N(C)[C@@H](CC3CC3)C(=O)N[C@@H]([C@@H](C)CC)C(=O)N(C)CC(=O)N(C)[C@H]3C/C=C\CCN(C3=O)[C@@H](Cc3ccc(C(F)(F)F)cc3)C(=O)N(C)CC(=O)N[C@@H](CCc3cc(F)c(C(F)(F)F)c(F)c3)C(=O)N2C1 [PP1628]	A (a compound having 10 or more and less than 20 is denoted as A)	A (a compound having 10 or more and less than 20 is denoted as A)
CCO[C@@H]1C[C@H]2C(=O)NC3(CC(C)(C)C3)C(=O)N(C)[C@@H](C3CCCC3)C(=O)N(C)[C@H](CC)CC(=O)N(C)[C@@H](CC3CC3)C(=O)N[C@@H]([C@@H](C)CC)C(=O)N(C)CC(=O)N(C)[C@H]3C/C=C\CCN(C3=O)[C@@H](Cc3ccc(C(F)(F)F)cc3)C(=O)N(C)CC(=O)N[C@@H](CCc3cc(F)c(C(F)(F)F)c(F)c3)C(=O)N2C1 [PP1629]	B (a compound having 3 or more and less than 10 is denoted as B)	B (a compound having 3 or more and less than 10 is denoted as B)
CCO[C@@H]1C[C@H]2C(=O)NC3(CCC3)C(=O)N(C)[C@@H](C(CC)CC)C(=O)N(C)[C@H](CC)CC(=O)N(C)[C@@H](CC3CC3)C(=O)N[C@@H]([C@@H](C)CC)C(=O)N(C)CC(=O)N(C)[C@H]3C/C=C\CCN(C3=O)[C@@H](Cc3ccc(C(F)(F)F)cc3)C(=O)N(C)CC(=O)N[C@@H](CCc3cc(F)c(C(F)(F)F)c(F)c3)C(=O)N2C1 [PP1630]	A (a compound having 10 or more and less than 20 is denoted as A)	A (a compound having 10 or more and less than 20 is denoted as A)
CCO[C@@H]1C[C@H]2C(=O)NC3(CC(F)(F)C3)C(=O)N(C)[C@@H](C(CC)CC)C(=O)N(C)[C@H](CC)CC(=O)N(C)[C@@H](CC3CC3)C(=O)N[C@@H]([C@@H](C)CC)C(=O)N(C)CC(=O)N(C)[C@H]3C/C=C\CCN(C3=O)[C@@H](Cc3ccc(C(F)(F)F)cc3)C(=O)N(C)CC(=O)N[C@@H](CCc3cc(F)c(C(F)(F)F)c(F)c3)C(=O)N2C1 [PP1632]	A (a compound having 10 or more and less than 20 is denoted as A)	A (a compound having 10 or more and less than 20 is denoted as A)
CCO[C@@H]1C[C@H]2C(=O)NC3(CC(F)(F)C3)C(=O)N(C)[C@@H](C3CCCC3)C(=O)N(C)[C@H](CC)CC(=O)N(C)[C@@H](CC3CC3)C(=O)N[C@@H]([C@@H](C)CC)C(=O)N(C)CC(=O)N(C)[C@H]3C/C=C\CCN(C3=O)[C@@H](Cc3ccc(C(F)(F)F)cc3)C(=O)N(C)CC(=O)N[C@@H](CCc3cc(F)c(C(F)(F)F)c(F)c3)C(=O)N2C1 [PP1633]	A (a compound having 10 or more and less than 20 is denoted as A)	B (a compound having 3 or more and less than 10 is denoted as B)
CCO[C@@H]1C[C@H]2C(=O)NC3(CC(C)(C)C3)C(=O)N(C)[C@@H](C(CC)CC)C(=O)N(C)[C@H](C3CCC3)CC(=O)N(C)[C@@H](CC3CC3)C(=O)N[C@@H]([C@@H](C)CC)C(=O)N(C)CC(=O)N(C)[C@H]3C/C=C\CCN(C3=O)[C@@H](Cc3ccc(C(F)(F)F)cc3)C(=O)N(C)CC(=O)N[C@@H](CCc3cc(F)c(C(F)(F)F)c(F)c3)C(=O)N2C1 [PP1634]	A (a compound having 10 or more and less than 20 is denoted as A)	A (a compound having 10 or more and less than 20 is denoted as A)
CCO[C@@H]1C[C@H]2C(=O)NC3(CC(C)(C)C3)C(=O)N(C)[C@@H](C3CCCC3)C(=O)N(C)[C@H](C3CCC3)CC(=O)N(C)[C@@H](CC3CC3)C(=O)N[C@@H]([C@@H](C)CC)C(=O)N(C)CC(=O)N(C)[C@H]3C/C=C\CCN(C3=O)[C@@H](Cc3ccc(C(F)(F)F)cc3)C(=O)N(C)CC(=O)N[C@@H](CCc3cc(F)c(C(F)(F)F)c(F)c3)C(=O)N2C1 [PP1635]	B (a compound having 3 or more and less than 10 is denoted as B)	A (a compound having 10 or more and less than 20 is denoted as A)
CCO[C@@H]1C[C@H]2C(=O)NC3(CCC3)C(=O)N(C)[C@@H](C(CC)CC)C(=O)N(C)[C@H](C3CCC3)CC(=O)N(C)[C@@H](CC3CC3)C(=O)N[C@@H]([C@@H](C)CC)C(=O)N(C)CC(=O)N(C)[C@H]3C/C=C\CCN(C3=O)[C@@H](Cc3ccc(C(F)(F)F)cc3)C(=O)N(C)CC(=O)N[C@@H](CCc3cc(F)c(C(F)(F)F)c(F)c3)C(=O)N2C1 [PP1636]	A (a compound having 10 or more and less than 20 is denoted as A)	A (a compound having 10 or more and less than 20 is denoted as A)
CCO[C@@H]1C[C@H]2C(=O)NC3(CCC3)C(=O)N(C)[C@@H](C3CCCC3)C(=O)N(C)[C@H](C3CCC3)CC(=O)N(C)[C@@H](CC3CC3)C(=O)N[C@@H]([C@@H](C)CC)C(=O)N(C)CC(=O)N(C)[C@H]3C/C=C\CCN(C3=O)[C@@H](Cc3ccc(C(F)(F)F)cc3)C(=O)N(C)CC(=O)N[C@@H](CCc3cc(F)c(C(F)(F)F)c(F)c3)C(=O)N2C1 [PP1637]	A (a compound having 10 or more and less than 20 is denoted as A)	A (a compound having 10 or more and less than 20 is denoted as A)
CCO[C@@H]1C[C@H]2C(=O)NC3(CC(F)(F)C3)C(=O)N(C)[C@@H](C3CCCC3)C(=O)N(C)[C@H](C3CCC3)CC(=O)N(C)[C@@H](CC3CC3)C(=O)N[C@@H]([C@@H](C)CC)C(=O)N(C)CC(=O)N(C)[C@H]3C/C=C\CCN(C3=O)[C@@H](Cc3ccc(C(F)(F)F)cc3)C(=O)N(C)CC(=O)N[C@@H](CCc3cc(F)c(C(F)(F)F)c(F)c3)C(=O)N2C1 [PP1639]	A (a compound having 10 or more and less than 20 is denoted as A)	A (a compound having 10 or more and less than 20 is denoted as A)
CCO[C@@H]1C[C@H]2C(=O)NC3(CC(C)(C)C3)C(=O)N(C)[C@@H](C3CCCC3)C(=O)N(C)[C@H](C(=O)N(C)C)CC(=O)N(C)[C@@H](C)C(=O)N[C@@H]([C@@H](C)CC)C(=O)N(C)CC(=O)N(C)[C@H]3C/C=C\CCN(C3=O)[C@@H](Cc3ccc(C(F)(F)F)cc3)C(=O)N(C)CC(=O)N[C@@H](CCc3cc(F)c(C(F)(F)F)c(F)c3)C(=O)N2C1 [PP1641]	A (a compound having 10 or more and less than 20 is denoted as A)	A (a compound having 10 or more and less than 20 is denoted as A)
CCO[C@@H]1C[C@H]2C(=O)NC3(CC(C)(C)C3)C(=O)N(C)[C@@H](C3CCCC3)C(=O)N(C)[C@H](C(=O)N(C)CC)CC(=O)N(C)[C@@H](CC(F)F)C(=O)N[C@@H]([C@@H](C)CC)C(=O)N(C)CC(=O)N(C)[C@H]3C/C=C\CCN(C3=O)[C@@H](Cc3ccc(C(F)(F)F)cc3)C(=O)N(C)CC(=O)N[C@@H](CCc3cc(F)c(C(F)(F)F)c(F)c3)C(=O)N2C1 [PP1643]	A (a compound having 10 or more and less than 20 is denoted as A)	A (a compound having 10 or more and less than 20 is denoted as A)
CCO[C@@H]1C[C@H]2C(=O)NC3(CC(C)(C)C3)C(=O)N(C)[C@@H](C3CCCC3)C(=O)N(C)[C@H](C(=O)N(C)C)CC(=O)N(C)[C@@H](CC(F)(F)F)C(=O)N[C@@H]([C@@H](C)CC)C(=O)N(C)CC(=O)N(C)[C@H]3C/C=C\CCN(C3=O)[C@@H](Cc3ccc(C(F)(F)F)cc3)C(=O)N(C)CC(=O)N[C@@H](CCc3cc(F)c(C(F)(F)F)c(F)c3)C(=O)N2C1 [PP1644]	A (a compound having 10 or more and less than 20 is denoted as A)	A (a compound having 10 or more and less than 20 is denoted as A)
CCC[C@H]1C(=O)N[C@@H]([C@@H](C)CC)C(=O)N(C)CC(=O)N(C)[C@H]2C/C=C\CCN(C2=O)[C@@H](Cc2ccc(C(F)(F)F)cc2)C(=O)N(C)CC(=O)N[C@@H](CCc2cc(F)c(C(F)(F)F)c(F)c2)C(=O)N2C[C@H](OCC)C[C@H]2C(=O)NC2(CC(C)(C)C2)C(=O)N(C)[C@@H](C2CCCC2)C(=O)N(C)[C@H](C(=O)N(C)C)CC(=O)N1C [PP1645]	A (a compound having 10 or more and less than 20 is denoted as A)	A (a compound having 10 or more and less than 20 is denoted as A)
CCC[C@H]1C(=O)N[C@@H]([C@@H](C)CC)C(=O)N(C)CC(=O)N(C)[C@H]2C/C=C\CCN(C2=O)[C@@H](Cc2ccc(C(F)(F)F)cc2)C(=O)N(C)CC(=O)N[C@@H](CCc2cc(F)c(C(F)(F)F)c(F)c2)C(=O)N2C[C@H](OCC)C[C@H]2C(=O)NC2(CC(C)(C)C2)C(=O)N(C)[C@@H](C2CCCC2)C(=O)N(C)[C@H](C(=O)N(C)CC)CC(=O)N1C [PP1646]	A (a compound having 10 or more and less than 20 is denoted as A)	A (a compound having 10 or more and less than 20 is denoted as A)
